Experimental data: PMC10065799, “High-throughput profiling of sequence recognition by tyrosine kinases and SH2 domains using bacterial peptide display” (eLife, 2023)

Target: T1, c-Abl kinase domain (Mus musculus, UniProt P00520)
T1 sequence (P00520 242-493 limits assumed): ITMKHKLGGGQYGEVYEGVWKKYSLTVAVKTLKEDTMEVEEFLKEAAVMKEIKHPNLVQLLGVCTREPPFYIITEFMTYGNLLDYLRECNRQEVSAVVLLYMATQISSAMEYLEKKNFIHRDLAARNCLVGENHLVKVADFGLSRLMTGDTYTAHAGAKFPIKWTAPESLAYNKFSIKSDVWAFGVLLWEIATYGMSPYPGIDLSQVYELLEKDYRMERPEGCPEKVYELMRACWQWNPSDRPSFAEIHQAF
Assay: pTyr-Var library bacterial peptide display kinase screen (enrichment scores)
Assay type: biochemical
Settings: fig5-data2, sheet "Abl"; Screen for the variant/reference peptide pair, pTyr-Var library

| Screen | Sequence |
| --- | --- |
| 1.976 | EFSNQYKATIG [RAB7A_Y37_K32E] |
| 1.846 | TVHPGYGFLSE [PCCA_Y143_A138T] |
| -0.5664 | SSTAMYSAAGR [PSMB1_Y8_P11A] |
| 0.8208 | DHPSEYAARQL [ANXA13_Y90_R86H] |
| -0.7593 | FRQNGYIPGSN [PCDHGB2_Y895_V894G_YF] |
| -0.7012 | RKLVDYDSAQH [BIN1_Y150_R154Q] |
| -0.7207 | FIGVTYKNKED [PDGFRA_Y993_E996K_YF] |
| -0.8391 | DDSNPYINVKL [MTHFD1_Y52_L51P] |
| 0.7779 | FDKPVYQKTTE [LDLR_Y828_N825K] |
| -0.7613 | DAAEDYAEGVC [DHODH_Y194_R199C] |
| 1.753 | LVLIKYLPEWT [PSEN1_Y240_F237L] |
| 1.216 | FRDALYKSMVD [PHEX_Y250_F252S_YF] |
| 1.1 | MLEAPYVDRNS [F10_Y384_V382A] |
| 1.893 | DCLASYLDKVR [KRT16_Y131_R127C] |
| 1.871 | PSPTKYSLSPS [RANBP2_Y785_R784K] |
| -0.9283 | AATTAYSKPKQ [MAP3K7_Y405_R410Q] |

The remaining lines, values behind:

| Sequence | Screen |
| --- | --- |
| DENWFYTQAAS [RPS19_Y54_R56Q] | 0.05995 |
| HGAKVYIDPFT [EPHB4_Y590_T587A] | 1.249 |
| FRAVKYLQMVG [AVPR2_Y117_C112Y_YF] | 1.48 |
| INITIYGKTFH [EFHC1_Y177_R182H] | 2.247 |
| RILENYGADID [DNAH5_Y596_L591R] | -0.1652 |
| ISNATYKQIGL [FLT1_Y199_E201Q] | -0.6358 |
| ADLVQYFMEHH [PTPN11_Y80_E76D_YF] | 0.02377 |
| AALSAYAPQRP [PTPRN2_Y249_A251P] | -0.5816 |
| FVPSNYVAEDR [FRK_Y104_I100V_YF] | 0.1639 |

Same assay, conditions: sheet "Abl"; effect of variant peptide relative to its reference peptide in pTyr-Var library screen (enrichment)

| Screen | Sequence |
| --- | --- |
| -2.647 | ADRNHYRRFRR [YBX1_Y145_P149R_YF] |
| -1.185 | RLAKRYLIWEC [SCN5A_Y694_Q692K] |
| -0.8996 | MNKNAYHNVTT [ST3GAL6_Y306_A311T] |
| -4.858 | QTSSNYDDAMQ [ZNF281_Y531_I527T] |
| 0.8994 | IVRSPYEDLED [VHL_Y185_L184P] |
| -0.02524 | SGSFRYGSSFE [SELE_Y390_C394F] |
| -5.536 | LLTKVYVVEGS [ZMPSTE24_Y253_P248L] |

Continued, sequence first:

| Sequence | Screen |
| --- | --- |
| SGEKPYKCSVC [ZNF543_Y283_E287V] | 3.958 |
| NPQKSYFICLF [WAS_Y83_R86C_YF] | 3.12 |
| DLQDEYDFKRK [STAT1_Y170_C174R] | -1.312 |
| MKKMHYVDPDR [ST3GAL5_Y99_H104R] | -0.8054 |

System: Fer kinase domain
Assay: as above
Assay type: biochemical, mouse
Settings: sheet "Fer"; value of the variant peptide against its reference peptide in the pTyr-Var library screen with Fer

| Sequence | Screen |
| --- | --- |
| KKHIPYRQHKS [CSNK1G2_Y206_E208Q] | 0.3167 |
| GENTVYAQVFN [LY9_Y603_M602V] | 0.3094 |

Same assay, conditions: sheet "Fer"; variant peptide relative to its reference peptide, pTyr-Var library screen enrichment

| Sequence | Screen |
| --- | --- |
| PVGVLYEVKVF [PTS_Y128_K129E_YF] | 1.639 |
| TQPSPYAVFLF [RPGRIP1_Y823_R827L_YF] | -0.3535 |

System: EPHB1 kinase domain
Assay: as above
Assay type: biochemical, human
Settings: sheet "EPHB1"; variant seq vs reference seq; bacterial peptide display enrichment

| Screen (variant relative to reference peptide, measured in the pTyr-Var library screen) | Sequence |
| --- | --- |
| -1.247 | SEKISYVFMKR [SSX7_Y48_L43S_YF] |

Same assay, conditions: sheet EPHB1; effect of the variant peptide relative to its reference peptide in the pTyr-Var library screen (enrichment scores)

| Sequence | Screen |
| --- | --- |
| LQKNIYSEELR [LMNA_Y211_F206L] | 0.6923 |
| CTHDLYMFMRE [FGFR3_Y724_I726F] | 0.1536 |
| PQAVTYAEVKH [LILRB4_Y360_K362E] | 2.401 |
| QMIETYFDFRV [NSMF_Y506_L511V] | -0.6862 |
| PVGVLYEVKVF [PTS_Y128_K129E_YF] | 0.4109 |
| KKHIPYRQHKS [CSNK1G2_Y206_E208Q] | 0.2176 |
| RSSGSYGGGGQ [HNRNPA1_Y341_P340S] | 0.1057 |
| LKRCQYVTKKV [ALDOA_Y204_E207K] | -1.465 |
| HLLRIYFDITD [MMP27_Y307_W304L_YF] | 0.4409 |
| TQPSPYAVFLF [RPGRIP1_Y823_R827L_YF] | -0.3084 |
| GENTVYAQVFN [LY9_Y603_M602V] | 0.06415 |
| QAIDEYEKWLE [MAP9_Y603_N601D] | -0.2835 |

Target: c-Src kinase domain (Homo sapiens, UniProt P12931)
Assay: as above
Assay type: biochemical
Settings: sheet "Src"; effect of the variant peptide relative to its reference peptide in the pTyr-Var library screen

| Sequence | Screen |
| --- | --- |
| LQKNIYSEELR [LMNA_Y211_F206L] | -1.475 |
| CTHDLYMFMRE [FGFR3_Y724_I726F] | 0.09652 |
| PQAVTYAEVKH [LILRB4_Y360_K362E] | 2.83 |
| GENTVYAQVFN [LY9_Y603_M602V] | 1.086 |

Same assay, conditions: sheet "Src"; variant peptide versus its reference peptide in the pTyr-Var library screen

| Sequence | Screen |
| --- | --- |
| QMIETYFDFRV [NSMF_Y506_L511V] | -0.8869 |
| TQPSPYAVFLF [RPGRIP1_Y823_R827L_YF] | -0.4188 |
